Results reported in ChEMBL document CHEMBL1134163, “Design and synthesis of tricyclic derivatives as high density lipoprotein cholesterol enhancers” (2001).

test system: Rattus norvegicus; test: Average percentage HDLC change in 6 cholesterol cholic acid-fed male rats (versus control) after treatment for 8 days at a dose of 100 mg/kg/day; assay type: functional

| Compound | HDL-C change [%] |
| --- | --- |
| O=C1c2ccccc2C(O)(c2ccc(F)cc2)C2=NCCN12 (stereo not drawn) | 0 |
| O=C1c2ccccc2C(O)(c2ccc(F)cc2)C2=NCCCN12 (stereo not drawn) | 22 |
| CC1(C)CN2C(=O)c3ccccc3C(O)(c3ccccc3)C2=N1 (stereo not drawn) | 55 |
| O=C1c2ncccc2C(O)(c2ccc(Cl)cc2)C2=NCCN12 (stereo not drawn) | 49 |
| C[C@@H]1CN2C(=O)c3ccccc3[C@@](O)(c3ccc(F)cc3)C2=N1 | 105 |
| C[C@@H]1CN2C(=O)c3ccccc3C(O)(c3ccc(F)cc3)C2=N1 (single isomer, unassigned) | 38 |
| O=C1c2ccccc2C(O)(c2ccc(F)cc2)C2=NC3(CCCC3)CN12 (stereo not drawn) | 21 |
| CC1(C)CN2C(=O)c3ccccc3C(O)(c3ccc(F)cc3)C2=N1 (stereo not drawn) | 90 |
